Assay results reported in patent publication US20110305911A1, “ARTICLE HAVING ANTIFOULING PROPERTIES AND INTENDED TO BE USED IN AQUATIC APPLICATIONS, PARTICULARLY MARINE APPLICATIONS” (BLUESTAR SILICONES FRANCE, priority 2008, published 2011).

Test: Solubility of the catalyst
Type: physicochemical
Conditions: ambient temperature (25° C.)

For `CC(C)C/C(=C/C(=O)C(C)(C)C)[O][Zn][O]/C(=C\C(=O)C(C)(C)C)CC(C)C` [Catalyst (6), zinc bis(2,2,7-trimethyl-3,5-octanedionate)], the solubility was “soluble in organic solvents, even in alkanes, and in silicone oils”.
